From article PMC7340446, “Optimization of PTH/PTHrP Hybrid Peptides to Derive a Long‐Acting PTH Analog (LA‐PTH)” (JBMR Plus, 2020)
Where no end group is shown, it is not given here.

How the values were obtained:
[1] = molecular target: T1, human PTHR1 (RG conformation) (Homo sapiens, UniProt Q03431); test: Competition binding to the RG conformation of PTHR1
T1 construct: expressed in transfected cells; host or cells: COS-7 cells (transient co-transfection; membranes)
T1 sequence (Q03431 27-593): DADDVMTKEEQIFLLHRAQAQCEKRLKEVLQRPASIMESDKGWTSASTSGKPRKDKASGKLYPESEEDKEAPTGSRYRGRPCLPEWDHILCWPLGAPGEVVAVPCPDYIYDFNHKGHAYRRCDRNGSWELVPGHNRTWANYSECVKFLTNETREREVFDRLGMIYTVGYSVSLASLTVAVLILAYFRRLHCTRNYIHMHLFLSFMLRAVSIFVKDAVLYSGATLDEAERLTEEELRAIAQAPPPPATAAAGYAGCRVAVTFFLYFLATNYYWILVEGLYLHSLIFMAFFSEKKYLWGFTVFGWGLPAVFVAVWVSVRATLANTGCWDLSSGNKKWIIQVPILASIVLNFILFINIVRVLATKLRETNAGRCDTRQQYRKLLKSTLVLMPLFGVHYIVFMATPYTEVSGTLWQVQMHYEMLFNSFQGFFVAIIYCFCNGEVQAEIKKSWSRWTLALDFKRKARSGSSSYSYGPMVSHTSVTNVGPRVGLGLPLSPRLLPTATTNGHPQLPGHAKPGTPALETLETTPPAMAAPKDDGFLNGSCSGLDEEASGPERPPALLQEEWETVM

[2] = molecular target: T2, human PTHR1 (Homo sapiens, UniProt Q03431); test: GloSensor cAMP signaling assay in GP‐2.3 cells; type: cell-based
T2 construct: expressed in transfected cells
T2 sequence (Q03431 27-593): T1 sequence (Q03431 27-593)
Experimental: GP‐2.3 cells, an HEK‐293 cell‐ (ATCC CRL‐1573) derived cell line that stably expresses the luciferase‐based pGloSensor‐22F (GloSensor) cAMP reporter plasmid (Promega Corp., […], USA) along with the human PTHR1, were cultured in DMEM (Thermo Fisher Scientific, Waltham, MA, USA) supplemented with FBS (10%). Cells were seeded into white 96‐well plates for GloSensor cAMP assays, and used for assay 2 to 3 days after the monolayer became confluent.16 UGS‐56 cells were derived from the UMR106 rat osteoblastic cell line by stably transfecting the cells to express the GloSensor‐cAMP reporter. B64 cells are a derivative of the porcine kidney cell line, LLC‐PK1 that stably expresses the human PTHR1. COS‐7 cells (ATCC CRL‐1661) were seeded into 10‐cm dishes and transiently transfected to express the human PTHR1 with or without a high‐affinity, negative‐dominant Gαs subunit; 2 days after transfection, the cells were harvested for membrane preparations.13 All transfections were performed using the Fugene HD reagent (Promega Corp.).
Changes in cAMP levels were assessed in intact GP‐2.3 or UGS‐56 cells via the (GloSensor) cAMP reporter. The intact cells in white 96‐well plates were preloaded with luciferin in CO2‐independent culture media (Thermo Fisher) for 20 min at room temperature, then treated with a test ligand diluted in the same media and placed into a Envision plate reader (PerkinElmer, Waltham, MA, USA) for an additional 30 min, during which time cAMP‐dependent luminescence was measured at 2‐min intervals (ligand‐on phase). […] For washout responses, the cells were treated as above, and after the ligand‐on phase, the plate was removed from the plate reader, the cells were rinsed with media, then fresh media containing only luciferin was added and luminescence was measured for an additional 90 min (washout phase). EC50 values were determined using the 4‐parameter sigmoidal dose–response equation in Prism 8.0 (GraphPad Software, Inc., La Jolla, CA, USA).
The cells were then removed from the plate reader, rinsed twice with media to remove unbound ligand, and then fresh media containing luciferin but lacking ligand was added and luminescence was assessed for additional 90 min (Ligand wash‐out phase). Data are means (± SEM) of four experiments, each performed in triplicate. Figure S2. […] Panels A‐C represent three separate experiments. […] Figure S3. […] Serum and urine samples obtained from the TPTX and sham control rats of the two‐week daily‐administration experiment shown in Figure 4 were analyzed by ELISA for the indicated markers. A) serum 1,25(OH)2Vitamin‐D3. B) urinary deoxypyridinoline (DpD)/Cre. C) serum FGF23. […] Serum and urine samples obtained from the TPTX and sham control rats of the two‐week daily‐administration experiment shown in Figure 4 were analyzed for total inorganic phosphorus (Pi). […] Figure S5. […] B) The same peptides were assessed at a concentration of 3 nM for the capacity to stimulate cAMP formation in HKRK‐B64 cells (LLC‐PK1 cells stably expressing the hPTHR1, cAMP measured by RIA). […] Data in A and B are means (±SEM) of three experiments, each performed in triplicate or quadruplicate. […] D) The same analogs as in C were assessed at a 3.0 nM concentration for the capacity to stimulate cAMP formation in HKRK‐B64 cells. Data are means (±SEM) of three experiments, each performed in duplicate. […] Data are means (±SEM) of duplicate determinations of a single experiment representative of three others. Click here for additional data file.

[3] = molecular target: T3, human PTHR1 (R^0 conformation) (Homo sapiens, UniProt Q03431); test: Competition binding to the R^0 conformation of PTHR1
T3 construct: expressed in transfected cells; host or cells: COS-7 cells (transient transfection; membranes)
T3 sequence (Q03431 27-593): T1 sequence (Q03431 27-593)

Sequence: AVAEIQLMHQRAKWIQDLRRRFFLHHLIAEIHTAEI [M‐PTH(1‐14)/PTHrP(15‐36), [Ala^1,3,12,Gln^10,Arg^11,Trp^14]‐PTH(1‐14)/PTHrP(15–36)]
- IC50 [1]: 0.67 ± 0.05 nM
- Emax [2]: 105 ± 4%
- IC50 [3]: 2.69 ± 0.99 nM
